In patent publication US10011573B2, “Human androgen receptor DNA-binding domain (DBD) compounds as therapeutics and methods for their use” (The University of British Columbia, priority 2014, dated 2018):
Read-outs that look alike come from different tables or passages of the source.

Legend:
PSA = test: Prostate-specific antigen (PSA) assay, secreted PSA from the eGFP assay plates; type: cell-based, human
Description: 3. Prostate-specific antigen (PSA) assay: The evaluation of PSA levels secreted into the media was performed in parallel to the eGFP assay using the same plates. After cells were incubated for 3 days, 150 μl of the media was taken from each well, and added to 150 μl of PBS.

androgen receptor (AR) = target: T1, androgen receptor (AR) (Homo sapiens, UniProt P10275, T878A); test: eGFP cellular AR transcription assay (LNCaP eGFP cells, LN-ARR2PB-eGFP); conditions: for inhibition at 3 µM: LNCaP, read-out: % Inhibition (3 μM)
T1 sequence (P10275 1-920 T878A): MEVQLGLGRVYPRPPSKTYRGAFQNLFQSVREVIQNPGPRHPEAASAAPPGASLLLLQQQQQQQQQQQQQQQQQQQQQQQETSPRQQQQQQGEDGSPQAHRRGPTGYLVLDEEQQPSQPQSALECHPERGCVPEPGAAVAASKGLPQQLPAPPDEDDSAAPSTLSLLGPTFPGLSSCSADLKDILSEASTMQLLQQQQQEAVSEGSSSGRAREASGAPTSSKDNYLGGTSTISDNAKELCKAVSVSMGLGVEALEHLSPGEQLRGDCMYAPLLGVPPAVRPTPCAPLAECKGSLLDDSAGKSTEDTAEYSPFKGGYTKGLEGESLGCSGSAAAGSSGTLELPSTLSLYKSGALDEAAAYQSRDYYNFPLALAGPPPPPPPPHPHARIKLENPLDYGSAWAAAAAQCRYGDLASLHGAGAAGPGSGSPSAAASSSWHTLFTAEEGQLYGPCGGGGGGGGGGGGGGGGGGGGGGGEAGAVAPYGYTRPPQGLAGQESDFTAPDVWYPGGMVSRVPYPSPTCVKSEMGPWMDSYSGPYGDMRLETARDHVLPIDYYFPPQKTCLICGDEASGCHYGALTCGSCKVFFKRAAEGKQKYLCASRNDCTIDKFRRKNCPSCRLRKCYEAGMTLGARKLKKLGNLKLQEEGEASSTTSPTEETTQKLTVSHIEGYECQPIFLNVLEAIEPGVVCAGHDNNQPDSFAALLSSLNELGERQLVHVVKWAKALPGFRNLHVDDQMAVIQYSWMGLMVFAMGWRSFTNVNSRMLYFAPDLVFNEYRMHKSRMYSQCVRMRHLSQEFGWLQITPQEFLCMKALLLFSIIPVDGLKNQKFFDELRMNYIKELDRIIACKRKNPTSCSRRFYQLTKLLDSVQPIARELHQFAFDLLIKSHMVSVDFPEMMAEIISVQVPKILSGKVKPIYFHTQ

[1] = eGFP IC50 (μM), LNCaP eGFP cells

## N#Cc1ccc(-c2nc3ccccc3s2)cc1 [Compound 14489]
PSA; Homo sapiens, secreted PSA
  IC50: 1060 nM
Androgen receptor (AR)
  inhibition at 3 µM: 82.5%
Androgen receptor (AR); [1]
  IC50: 1.79 µM

## c1ccc2nc(N3CCOCC3)ccc2c1 [Compound 14401]
PSA; Homo sapiens, secreted PSA
  IC50: 690 nM
Androgen receptor (AR)
  inhibition at 3 µM: 76%
Androgen receptor (AR); [1]
  IC50: 0.85 µM

## FC(F)(F)c1cccc(-c2csc(N3CCOCC3)n2)c1 [Compound 14292]
PSA; Homo sapiens, Series 1
  IC50: 580 nM
Androgen receptor (AR); eGFP IC50 (μM), Series 1
  IC50: 0.61 µM

## Fc1ccc(-c2csc(-c3ccncc3)n2)cc1 [Compound 14315]
PSA; Homo sapiens, Series 1
  IC50: 632 nM
Androgen receptor (AR)
  inhibition at 3 µM: 83.3%
Androgen receptor (AR); eGFP IC50 (μM), Series 1
  IC50: 1.19 µM

## Cc1ncn(-c2csc(N3CCOCC3)n2)c1C [Compound 14399]
PSA; Series 1
  IC50: 2420 nM
Androgen receptor (AR); read-out: eGFP IC50
  IC50: 3.65 µM

## COc1ccccc1-c1csc(N2CCOCC2)n1 [Compound 14257]
PSA; Homo sapiens, Series 1
  IC50: 830 nM
Androgen receptor (AR)
  inhibition at 3 µM: 118%
Androgen receptor (AR); eGFP IC50 (μM), Series 1
  IC50: 0.22 µM

## Cc1[nH]c2ccccc2c1-c1csc(N2CCOCC2)n1 [Compound 14135]
PSA; Homo sapiens, Series 1
  IC50: 7800 nM
Androgen receptor (AR)
  inhibition at 3 µM: 64%
Androgen receptor (AR); eGFP IC50 (μM), Series 1
  IC50: 6.89 µM

## N#Cc1ccc(-c2ccc(N3CCOCC3)s2)cc1 [Compound 14117]
PSA; Homo sapiens, Series 1
  IC50: 885 nM
Androgen receptor (AR)
  inhibition at 3 µM: 111%
Androgen receptor (AR); eGFP IC50 (μM), Series 1
  IC50: 1.43 µM

## Oc1c(-c2csc(N3CCOCC3)n2)ccc(F)c1F [Compound 14371]
PSA; Homo sapiens, Series 1
  IC50: 700 nM
Androgen receptor (AR)
  inhibition at 3 µM: 98.9%
Androgen receptor (AR); eGFP IC50 (μM), Series 1
  IC50: 0.8 µM

## CCc1sc(N2CCOCC2)nc1-c1ccccc1 [Compound 14285]
PSA; Series 1
  IC50: 8430 nM
Androgen receptor (AR)
  % Inhibition (3 μM): 52.34%
Androgen receptor (AR); read-out: eGFP IC50
  IC50: 5.85 µM

## Fc1ccc2sc(N3CCOCC3)nc2c1F [Compound 14409]
PSA; Homo sapiens, secreted PSA
  IC50: 340 nM
Androgen receptor (AR)
  inhibition at 3 µM: 86%
Androgen receptor (AR); [1]
  IC50: 0.36 µM

## c1cncc(-c2csc(-c3c[nH]c4ccccc34)n2)c1 [Compound 14442]
PSA; Homo sapiens, Series 1
  IC50: 3050 nM
Androgen receptor (AR)
  inhibition at 3 µM: 86.3%
Androgen receptor (AR); eGFP IC50 (μM), Series 1
  IC50: 5.39 µM

## Clc1cn(-c2csc(N3CCOCC3)n2)cn1 [Compound 14448, 4-(4-(4-chloro-1H-imidazol-1-yl)thiazol-2-yl)morpholine]
PSA; Homo sapiens, Series 1
  IC50: 720 nM
Androgen receptor (AR); eGFP IC50 (μM), Series 1
  IC50: 0.96 µM

## Brc1ccc2nc(N3CCOCC3)ccc2c1 [Compound 14452]
PSA; Homo sapiens, secreted PSA
  IC50: 170 nM
Androgen receptor (AR); [1]
  IC50: 0.11 µM

## COc1cc(F)ccc1-c1csc(N2CCOCC2)n1 [Compound 14367]
PSA; Homo sapiens, Series 1
  IC50: 230 nM
Androgen receptor (AR)
  inhibition at 3 µM: 103%
Androgen receptor (AR); eGFP IC50 (μM), Series 1
  IC50: 0.3 µM

## c1ccc(-c2csc(-c3ccncc3)n2)cc1 [Compound 14352]
PSA; Series 1
  IC50: 630 nM
Androgen receptor (AR); read-out: eGFP IC50
  IC50: 1.19 µM

## Clc1ncn(-c2csc(N3CCOCC3)n2)c1Cl [Compound 14402, 4-(4-(4,5-dichloro-1H-imidazol-1-yl)thiazol-2-yl)morpholine]
PSA; Homo sapiens, Series 1
  IC50: 570 nM
Androgen receptor (AR); eGFP IC50 (μM), Series 1
  IC50: 0.66 µM

## O=[N+]([O-])c1cccc2ccc(N3CCOCC3)nc12 [Compound 14398]
PSA; Homo sapiens, secreted PSA
  IC50: 850 nM
Androgen receptor (AR); [1]
  IC50: 0.82 µM

## c1ccc2nc(N3CCCCC3)ccc2c1 [Compound 14495]
Androgen receptor (AR)
  inhibition at 3 µM: 89.4%
Androgen receptor (AR); [1]
  IC50: 0.6 µM

## COc1cc(C)c2occ(/C(C)=N/O)c2c1 [Compound 14017]
Androgen receptor (AR); [1]
  IC50: 41.6 µM

## C/C(=N\NC(N)=S)c1ccc2c3c(cccc13)CC2 [Compound 14206]
Androgen receptor (AR)
  inhibition at 3 µM: 109%
Androgen receptor (AR); [1]
  IC50: 3.4 µM

## O=C1C(Cl)=C(N2CCOCC2)C(=O)N1c1ccccc1 [Compound 14476]
Androgen receptor (AR)
  % Inhibition (3 μM): 9.79%

## CC1CCCN(c2nc(-c3ccc(O)cc3O)cs2)C1 (stereo not shown) [Compound 14301]
Androgen receptor (AR)
  inhibition at 3 µM: 60%
Androgen receptor (AR); eGFP IC50 (μM), Series 1
  IC50: 5 µM

## N#Cc1ccc(-c2csc(N3CCOCC3)n2)cc1 [Compound 14457]
Androgen receptor (AR); 3 µM
  % Inhibition (3 μM): 80%

## NC(=S)NN=C(c1ccccc1)c1ccccc1 [Compound 14172]
Androgen receptor (AR)
  inhibition at 3 µM: 46.4%
Androgen receptor (AR); [1]
  IC50: 29.4 µM

## Cc1ccc(-c2csc(N3CCOCC3)n2)cc1C [Compound 14294]
Androgen receptor (AR)
  inhibition at 3 µM: 40%
Androgen receptor (AR); eGFP IC50 (μM), Series 1
  IC50: 10.3 µM

## Fc1ccccc1-c1csc(N2CCOCC2)n1 [Compound 14286]
Androgen receptor (AR)
  % Inhibition (3 μM): 85.86%

## COc1cccc(-c2csc(-c3ccccn3)n2)c1 [Compound 14343]
Androgen receptor (AR)
  % Inhibition (3 μM): 16.12%

## Clc1ccccc1-c1csc(N2CCOCC2)n1 [Compound 14437]
Androgen receptor (AR)
  % Inhibition (3 μM): 45.04%

## N#Cc1ccc(-c2csc(N3CCOCC3)n2)cc1 [Compound 14261]
Androgen receptor (AR); 3 µM
  % Inhibition (3 μM): 25.48%

## N#Cc1cc2ccccc2nc1N1CCOCC1 [Compound 14433]
Androgen receptor (AR); [1]
  IC50: 1.95 µM

## FC(F)(F)c1cccc(-c2csc(-c3cnccn3)n2)c1 [Compound 14486]
Androgen receptor (AR)
  % Inhibition (3 μM): 20.4%

## c1ccc2c(c1)ncn2-c1csc(N2CCOCC2)n1 [Compound 14509]
Androgen receptor (AR); read-out: eGFP IC50
  IC50: 1.17 µM

## Nc1cccc(-c2ccc3ccccc3n2)c1 [Compound 14321]
Androgen receptor (AR)
  inhibition at 3 µM: 66.5%

## Clc1scc(-c2csc(N3CCOCC3)n2)c1Cl [Compound 14462]
Androgen receptor (AR); eGFP IC50 (μM), Series 1
  IC50: 0.11 µM

## Oc1ccc(-c2csc(N3CCOCC3)n2)cc1O [Compound 14267]
Androgen receptor (AR)
  % Inhibition (3 μM): 19.95%

## Cc1ccccc1CN1C(=O)NC2C=CC=CC21 (stereo not shown) [Compound 14065]
Androgen receptor (AR); [1]
  IC50: 10 µM

## CS(=O)(=O)c1c(F)cccc1-c1csc(N2CCOCC2)n1 [Compound 14429]
Androgen receptor (AR); eGFP IC50 (μM), Series 1
  IC50: 3.55 µM

## CS(=O)(=O)Nc1ccc(-c2csc(N3CCOCC3)n2)cc1 [Compound 14276]
Androgen receptor (AR)
  % Inhibition (3 μM): 25.98%

## c1ccc(-c2csc(N3CCCC3)n2)cc1 [Compound 14351]
Androgen receptor (AR)
  % Inhibition (3 μM): 38.4%

## Nc1ccccc1CN1C(=O)Cc2ccccc21 [Compound 14082]
Androgen receptor (AR)
  inhibition at 3 µM: 93.1%
Androgen receptor (AR); [1]
  IC50: 9.5 µM

## Cc1ccc(-c2nc(N3CCOCC3)sc2C)cc1 [Compound 14284]
Androgen receptor (AR)
  % Inhibition (3 μM): 30.22%

## c1ccc(-c2csc(-c3c[nH]c4ccccc34)n2)cc1 [Compound 14361]
Androgen receptor (AR)
  inhibition at 3 µM: 41.6%
Androgen receptor (AR); eGFP IC50 (μM), Series 1
  IC50: 10.1 µM

## Cc1sc(N2CCOCC2)nc1-c1ccc(F)cc1 [Compound 14341]
Androgen receptor (AR)
  % Inhibition (3 μM): 43.7%

## OCc1cccc(-c2ccc3ccccc3n2)c1 [Compound 14388]
Androgen receptor (AR)
  inhibition at 3 µM: 44.9%
Androgen receptor (AR); [1]
  IC50: 10.4 µM

## Oc1ccc(-c2csc(N3CCOCC3)n2)c(O)c1 [Compound 14295]
Androgen receptor (AR)
  % Inhibition (3 μM): 24.7%

## NC(=S)N/N=C/c1cccc2ccccc12 [Compound 14164]
Androgen receptor (AR)
  inhibition at 3 µM: 86.8%
Androgen receptor (AR); [1]
  IC50: 3.04 µM

## c1sc(N2CCOCC2)nc1C1CCCC1 [Compound 14403]
Androgen receptor (AR); LNCaP (T877A AR)
  anti-AR activity (AR transcriptional inhibition) in words: lost their anti-AR activity
Androgen receptor (AR); LNCaP eGFP cells, 0.1 nM R1881
  eGFP IC50: Low activity
Androgen receptor (AR)
  inhibition at 3 µM: 22%
